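Each compound was tested at five concentrations against cells in 96-well plates for 48 hours. TGI is the concentration that stops growth completely.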
Experiments:
Assay in all cases: NCI tumour cell line growth inhibition, 48 h
A549 NSCLC = system: A549 NSCLC
OVCAR-5 ovarian = system: OVCAR-5 ovarian
LOX IMVI melanoma = system: LOX IMVI melanoma
OVCAR-8 ovarian = system: OVCAR-8 ovarian
MCF7 breast = system: MCF7 breast
HCT-15 colon = system: HCT-15 colon
MALME-3M melanoma = system: MALME-3M melanoma
IGROV1 ovarian = system: IGROV1 ovarian
CCRF-CEM leukemia = system: CCRF-CEM leukemia
HOP-18 NSCLC = system: HOP-18 NSCLC
HOP-92 NSCLC = system: HOP-92 NSCLC
OVCAR-4 ovarian = system: OVCAR-4 ovarian
HCT-116 colon = system: HCT-116 colon
NCI-H522 lung = system: NCI-H522 lung

Measured: TGI

O=C(O)C(Cc1cccs1)NC(=O)C(F)(F)F (centres undefined)
> 100 µM: all assays above

Source: PubChem BioAssay (NCI)
